From ChEMBL document CHEMBL3885881, “DrugMatrix”

Species: Rattus norvegicus
Test: DrugMatrix - Regimen: Daily Repeat
Type: toxicity, organism-based, Sprague-Dawley
Parameters: regimen Daily Repeat, gender Male, age 6-8 weeks
Details: in vivo, po, 2 mg/kg, route oral GAVAGE, dose level Low, […]; for ABSOLUTE BASOPHIL / ABSOLUTE EOSINOPHIL / ABSOLUTE LYMPHOCYTE / ABSOLUTE MONOCYTE / ABSOLUTE SEGMENTED NEUTROPHIL / BASOPHIL / EOSINOPHIL / ERYTHROCYTE COUNT / HEMATOCRIT / HEMOGLOBIN / LEUKOCYTE COUNT / LYMPHOCYTE / MEAN CORPUSCULAR HEMOGLOBIN / MEAN CORPUSCULAR HEMOGLOBIN CONCENTRATION / MEAN CORPUSCULAR VOLUME / MONOCYTE / NEUTROPHIL / NUCLEATED RED BLOOD CELLS / PLATELET COUNT: tissue Blood; for ALANINE AMINOTRANSFERASE / ALBUMIN / ALKALINE PHOSPHATASE / ASPARTATE AMINOTRANSFERASE / BLOOD UREA NITROGEN / CARBON DIOXIDE / CHLORIDE / CHOLESTEROL / CREATINE PHOSPHOKINASE / CREATININE / GLUCOSE / LACTATE DEHYDROGENASE / LIPASE / PHOSPHORUS / POTASSIUM / SODIUM / TOTAL BILIRUBIN / TOTAL PROTEIN / URIC ACID: tissue Plasma

Cc1nnc2n1-c1ccc(Cl)cc1C(c1ccccc1)=NC2 [ALPRAZOLAM]
ABSOLUTE BASOPHIL (72 h, time 3 day): 0 CELLS/uL | ABSOLUTE EOSINOPHIL (72 h, time 3 day): 40.33 CELLS/uL | ABSOLUTE LYMPHOCYTE (72 h, time 3 day): 13483.67 CELLS/uL | ABSOLUTE MONOCYTE (72 h, time 3 day): 168.67 CELLS/uL | ABSOLUTE SEGMENTED NEUTROPHIL (72 h, time 3 day): 1074 CELLS/uL | BASOPHIL (72 h, time 3 day): 0% | EOSINOPHIL (72 h, time 3 day): 0.33% | ERYTHROCYTE COUNT (72 h, time 3 day): 5.44 x10E6/uL | HEMATOCRIT (72 h, time 3 day): 34.8% | HEMOGLOBIN (72 h, time 3 day): 13.4 G/DL | LEUKOCYTE COUNT (72 h, time 3 day): 14.77 x10E3/uL | LYMPHOCYTE (72 h, time 3 day): 91% | MEAN CORPUSCULAR HEMOGLOBIN (72 h, time 3 day): 24.7 pg | MEAN CORPUSCULAR HEMOGLOBIN CONCENTRATION (72 h, time 3 day): 38.5 G/DL | MEAN CORPUSCULAR VOLUME (72 h, time 3 day): 64.17 fL | MONOCYTE (72 h, time 3 day): 1.33% | NEUTROPHIL (72 h, time 3 day): 7.33% | NUCLEATED RED BLOOD CELLS (72 h, time 3 day): 0 /100WBC | PLATELET COUNT (72 h, time 3 day): 1211 x10E3/uL | ALANINE AMINOTRANSFERASE (72 h, time 3 day): 78.67 u/L | ALBUMIN (72 h, time 3 day): 4.13 G/DL | ALKALINE PHOSPHATASE (72 h, time 3 day): 386.33 u/L | ASPARTATE AMINOTRANSFERASE (72 h, time 3 day): 99 u/L | BLOOD UREA NITROGEN (72 h, time 3 day): 15 mg/dL | CARBON DIOXIDE (72 h, time 3 day): 27 mmol/L | CHLORIDE (72 h, time 3 day): 99 MEQ/L | CHOLESTEROL (72 h, time 3 day): 68.67 mg/dL | CREATINE PHOSPHOKINASE (72 h, time 3 day): 276 u/L | CREATININE (72 h, time 3 day): 0.2 mg/dL | GLUCOSE (72 h, time 3 day): 160.33 mg/dL | LACTATE DEHYDROGENASE (72 h, time 3 day): 401.67 u/L | LIPASE (72 h, time 3 day): 10.33 u/L | PHOSPHORUS (72 h, time 3 day): 13.67 mg/dL | POTASSIUM (72 h, time 3 day): 7.37 MEQ/L | SODIUM (72 h, time 3 day): 142.63 MEQ/L | TOTAL BILIRUBIN (72 h, time 3 day): 0.23 mg/dL | TOTAL PROTEIN (72 h, time 3 day): 5.63 G/DL | URIC ACID (72 h, time 3 day): 1.7 mg/dL | ABSOLUTE BASOPHIL (120 h, time 5 day): 0 CELLS/uL | ABSOLUTE EOSINOPHIL (120 h, time 5 day): 0 CELLS/uL | ABSOLUTE LYMPHOCYTE (120 h, time 5 day): 13775.33 CELLS/uL | ABSOLUTE MONOCYTE (120 h, time 5 day): 53.67 CELLS/uL | ABSOLUTE SEGMENTED NEUTROPHIL (120 h, time 5 day): 1637.67 CELLS/uL | BASOPHIL (120 h, time 5 day): 0% | EOSINOPHIL (120 h, time 5 day): 0% | ERYTHROCYTE COUNT (120 h, time 5 day): 5.79 x10E6/uL | HEMATOCRIT (120 h, time 5 day): 35.1% | HEMOGLOBIN (120 h, time 5 day): 13.93 G/DL | LEUKOCYTE COUNT (120 h, time 5 day): 15.47 x10E3/uL | LYMPHOCYTE (120 h, time 5 day): 89% | MEAN CORPUSCULAR HEMOGLOBIN (120 h, time 5 day): 24.07 pg | MEAN CORPUSCULAR HEMOGLOBIN CONCENTRATION (120 h, time 5 day): 39.7 G/DL | MEAN CORPUSCULAR VOLUME (120 h, time 5 day): 60.57 fL | MONOCYTE (120 h, time 5 day): 0.33% | NEUTROPHIL (120 h, time 5 day): 10.67% | NUCLEATED RED BLOOD CELLS (120 h, time 5 day): 0 /100WBC | PLATELET COUNT (120 h, time 5 day): 1214.33 x10E3/uL | ALANINE AMINOTRANSFERASE (120 h, time 5 day): 67 u/L | ALBUMIN (120 h, time 5 day): 4 G/DL | ALKALINE PHOSPHATASE (120 h, time 5 day): 343.67 u/L | ASPARTATE AMINOTRANSFERASE (120 h, time 5 day): 109.67 u/L | BLOOD UREA NITROGEN (120 h, time 5 day): 15 mg/dL | CARBON DIOXIDE (120 h, time 5 day): 27 mmol/L | CHLORIDE (120 h, time 5 day): 101 MEQ/L | CHOLESTEROL (120 h, time 5 day): 81.67 mg/dL | CREATINE PHOSPHOKINASE (120 h, time 5 day): 429 u/L | CREATININE (120 h, time 5 day): 0.19 mg/dL | GLUCOSE (120 h, time 5 day): 142.33 mg/dL | LACTATE DEHYDROGENASE (120 h, time 5 day): 632 u/L | LIPASE (120 h, time 5 day): 10.67 u/L | PHOSPHORUS (120 h, time 5 day): 11.1 mg/dL | POTASSIUM (120 h, time 5 day): 5.98 MEQ/L | SODIUM (120 h, time 5 day): 144.97 MEQ/L | TOTAL BILIRUBIN (120 h, time 5 day): 0.13 mg/dL | TOTAL PROTEIN (120 h, time 5 day): 5.63 G/DL | URIC ACID (120 h, time 5 day): 1.63 mg/dL
